Activity calls are given as the source filed them. The rule behind the calls is not given here.
Columns and labels:
[1] = system: Radical scavenging activity; assay: Antioxidant activity assessed as DPPH free radical scavenging activity at 100 uM after 20 mins by spectrophotometry; format: functional
[2] = Antioxidant activity assessed as Fe3+/ascorbic acid-induced hydroxyl radical scavenging activity at 100 uM after 30 mins; format: functional
[3] = system: Radical scavenging activity; assay: Antioxidant activity assessed as DPPH free radical scavenging activity at 100 uM after 60 mins by spectrophotometry; format: functional
[4] = Antioxidant activity assessed as xanthine-xanthine oxidase-induced superoxide anion radical scavenging activity at 0.1 mM after 10 mins by spectrophotometry; format: functional
[5] = Antioxidant activity against AAPH-induced lipid peroxidation at 100 uM by UV spectrophotometry; format: functional
[6] = system: Radical scavenging activity; assay: Antioxidant activity assessed as DPPH free radical scavenging activity at 50 uM after 20 to 60 mins by spectrophotometry; format: functional
Glycine max = assay: Inhibition of soybean lipoxygenase at 100 uM
[7] = system: Radical scavenging activity; assay: Antioxidant activity assessed as DPPH free radical scavenging activity at 100 uM by spectrophotometry; format: functional
Rattus norvegicus = assay: Antiinflammatory activity in Fisher 344 rat assessed as reduction of carrageenan-induced paw oedema at 0.01 mmol/kg, ip after 3.5 hrs; format: functional; design: scale not given: the % may be the effect or the level left
[8] = Inhibition of soybean lipoxygenase; design: species or system Glycine max

Structure (SMILES) | Activity [1] | Activity [2] | Activity [3] | Activity [4] | Activity [5] | Activity [6] | inhibition (Glycine max) | Activity [7] | Activity (Rattus norvegicus) | IC50 [8]
NNC(=O)CCc1c[nH]c2ccccc12 | 12.5% | inactive | 56% | 67% | inactive | inactive | inactive | – | – | –
O=C(NN=C1CCCC1)c1cc2ccccc2[nH]1 | inactive | 17% | 38% | inactive | 65% | inactive | 37% | Active | – | –
COc1ccc2c(c1)c(CC(=O)O)c(C)n2C(=O)c1ccc(Cl)cc1 [INDOMETHACIN] | – | – | – | – | – | – | – | – | 47% | –
C/C(Cc1ccccc1)=N/NC(=O)c1c[nH]c2ccc(O)cc12 | 65% | 2% | 80% | inactive | 50% | inactive | 52% | – | – | –
C/C(CC(C)C)=N\NC(=O)c1cc2ccccc2[nH]1 | 10% | 74% | 36% | inactive | 68% | inactive | 31% | Active | – | –
Cc1c(C)c2c(c(C)c1O)CCC(C)(C(=O)O)O2 (centres undefined) | – | 73% | – | – | 63% | – | – | – | – | –
Cc1ccc(CNNC(=O)c2cc3ccccc3n2C)cc1 | 66% | inactive | 61% | 67% | 85% | inactive | – | Active | – | 78 µM
NNCCCc1c[nH]c2ccccc12 | 85% | 34% | 99% | inactive | 25% | inactive | inactive | – | – | –
CCC(CC)NNC(=O)c1cc2ccccc2[nH]1 | 11% | 61% | 16% | inactive | 30% | inactive | 19% | Active | – | –
CC(Cc1ccc(O)c(O)c1)C(C)Cc1ccc(O)c(O)c1 (centres undefined) | 81% | – | 83% | – | – | – | – | – | – | –
O=C(NNCCCc1ccccc1)c1cc2ccccc2[nH]1 | 53% | inactive | 8.5% | inactive | 64% | inactive | 33% | Active | – | –
O=C(O)/C=C/c1ccc(O)c(O)c1 | – | – | – | 15% | – | – | – | – | – | –
CC(C)=NNC(=O)c1cc2ccccc2n1C | inactive | 18% | 91% | 100% | 87% | inactive | – | – | 40% | 62.5 µM
CCCCNNC(=O)c1cc2ccccc2[nH]1 | 79% | 90% | 8% | 33% | 78% | inactive | – | Active | 57% | 62.5 µM

— ChEMBL document CHEMBL2375310, “Analysis of the antioxidant properties of differently substituted 2- and 3-indolyl carbohydrazides and related derivatives” (Eur J Med Chem, 2013)
